Experimental data taken from article PMC2063102 (British Journal of Cancer, 1998).
Values joined by “and” are separate entries in the source; they are usually repeats but may differ in a detail not shown here. Equal entries are not always repeated.

What was measured:
Format in all cases: in vivo, C3H/HeN mice
[1] = system: MDAH-MCa-4 tumours; test: Tumour blood flow by 99mTc pertechnetate wash-out (clearance rate constant k); details: for time course of tumour blood flow inhibition: agent alone: 5-HT 700 µmol kg-1, DMXAA 70 µmol kg-1
[2] = system: MDAH-MCa-4 tumours; test: Tumour growth delay (time to reach 13 mm, treated minus control)
[3] = system: MDAH-MCa-4 tumours; test: Tumour necrosis / residual viable tissue scored histologically (H&E sections)

| SMILES | dose-modifying factor (DMF) for blood flow inhibition by DMXAA ([1]; 5-HT 700 µmol kg-1 co-administered with DMXAA, at 4 h) | effect on tumour blood flow at 4 h ([1]; 5-HT alone 700 µmol kg-1 i.p.) | time course of tumour blood flow inhibition [1] | dose-modifying factor (DMF) for growth delay (DMXAA dose for 5-day growth delay) ([2]; 5-HT 700 µmol kg-1 co-administered with DMXAA) | Tumour growth delay, Expt 2 ([2]; single agent i.p.: bioreductive drug at its MTD, DMXAA 80 µmol kg-1, 5-HT 700 µmol kg-1, mean ± s.e.m.) | dose-modifying factor (DMF) for necrosis (DMXAA dose for 50% reduction of viable tissue) ([3]; 5-HT 700 µmol kg-1 co-administered with DMXAA, at 12 h) | necrotic fraction ([3]; 5-HT alone 700 µmol kg-1, 12 h (control 8.8%)) | DMF relative to DMXAA alone (5-day growth delay) ([2]; mouse, in vivo) | factor lowering the DMXAA dose required for a 5-day growth delay ([2]; mouse, in vivo) | Tumour growth delay (one experiment only, column not discernible) ([2]; mouse, in vivo, ip) | time to maximal tumour blood flow inhibition ([1]; DMXAA 20 µmol kg-1 co-administered with 5-HT 700 µmol kg-1) | DMXAA dose giving 50% inhibition of tumour blood flow ([1]; DMXAA alone i.p., 4 h after administration) | predicted growth delay (from regrowth of residual viable tissue) ([2]; mouse, in vivo) | necrosis ([3]; DMXAA 60 µmol kg-1 and above co-administered with 5-HT 700 µmol kg-1, 12 h) | threshold dose for the necrotizing effect ([3]; DMXAA alone i.p., 12 h) | doubling time of fraction of viable tissue after treatment ([3]; between 1 and 4 days after DMXAA 80 µmol kg-1) |
| --- | --- | --- | --- | --- | --- | --- | --- | --- | --- | --- | --- | --- | --- | --- | --- | --- |
| NCCc1c[nH]c2ccc(O)cc12 [5-HT, 5-hydroxytryptamine] | > 3 | little effect | weak and transient inhibition | 2.0 | -2.9 + 0.7 days | 2.3 | 38% |  |  |  |  |  |  |  |  |  |
| Nc1n[n+]([O-])c2ccccc2[n+]1[O-] [TIRA, tirapazamine] |  |  |  |  |  |  |  | 2.6 | 1.8 | 2.7 ± 1.4 days |  |  |  |  |  |  |
| Cc1ccc2c(=O)c3cccc(CC(=O)O)c3oc2c1C [DMXAA, 5,6-dimethylxanthenone-4-acetic acid] |  |  | progressive inhibition over 4 h with no recovery by 24 h |  |  |  |  |  |  |  | ≤ 1 h | 60 µmol/kg | 6.0 days and 5.8 days | > 99% | approximately 60 µmol kg-1 | 1.0 days |
